The results in this text go back to article PMC7690585, “Target-Mediated Brain Tissue Binding for Small Molecule Inhibitors of Heat Shock Protein 90” (Pharmaceutics, 2020).

The nature of the series: in vitro. The settings on record: NMRI, mouse, brain homogenate, pH 7. How it is done:
Brain tissue from Naval Medical Research Institute (NMRI) mice was homogenized in phosphate buffer (1 g: 2 mL) and stored in −80 °C freezer before use. For dialysis experiment, 150 µL of brain homogenate (fresh blood collected on EDTA-K2 and diluted 1:1 with phosphate buffer or plasma) was added to one compartment of a dialysis plate (assembled according to the manufacturer instructions with a dialysis membrane between the 2 compartments) against 150 µL of phosphate buffer pH 7. The test compound was added to the compartment with brain homogenate (or plasma) and the plate was incubated in an incubator with a 5% CO2 and rotating at 150 rpm for 5 h. At the end of the incubation time, aliquots of 90 µL of samples were removed from both the buffer and the brain homogenate compartments. The aliquots were added to 120 µL of acetonitrile containing the internal standard. The mixture was centrifuged at 4000 rpm for 10 min and the supernatant was collected for LC-MS/MS analysis. All equilibrium dialysis studies were performed in triplicate at each tested concentration.
Binding to brain tissues was assessed using 6 different concentrations of test items ranging from 0.3 to 100 µM. Warfarin was used as control.
Determination of fractions unbound was conducted according to the equations below:fu = Creceiver (CT0 − Creceiver)(1)
In brain homogenate (blood or plasma):(2) % Undiluted fu=100 ×1/D/1/fu−1+1/D (3) % Recovery=100 × Creceiver +Cdonor/CT0 where
Dilution factor (D) is determined as 3 in this assay.

The term fraction unbound denotes free concentration divided by total concentration. A high value points to much free substance. `CC(=O)CC(c1ccccc1)c1c(O)c2ccccc2oc1=O` (stereo not shown) [Warfarin]: the fraction unbound at 5 h, 0.3 µM was determined as 0.086 ± 0.002; the free fraction (fraction unbound) at 5 h, 1 µM amounted to 0.112 ± 0.001; the free fraction (fraction unbound) at 5 h, 3 µM is 0.143 ± 0.005; the unbound share (fraction unbound) at 5 h, 10 µM was 0.143 ± 0.006. Also, the fraction unbound at 5 h, 30 µM worked out at 0.168 ± 0.006 and the fraction unbound at 5 h, 100 µM is 0.179 ± 0.009. For the same molecule, the “Ratio (30 µM/1 µM) Unbound Fractions in Brain” value (5 h) worked out at 1.5.
